According to US5693620A, “Plasmalopsychosines and plasmalocerebrosides” (Oncomembrane, Inc., priority 1994, dated 1997):
Entries after “also recorded” stand apart in the source; their conditions may differ.

How the values were obtained:
[1] = Acid lability of glycolipids (aqueous HCl/methanol, TLC mobility); type: physicochemical; details: methanol-aqueous 0.1N HCl 1:1, 90° C., 10 min
Protocol: Acid-labile glycolipids were detected by hydrolysis of samples in methanol-aqueous 0.1N HCl (1:1, v/v) heated at 90° C. for 10 min, followed by Folch partitioning and TLC examination of lower phase. The glycolipid with high TLC mobility converting to the same mobility as normal cerebroside by this treatment was regarded as the acid-labile cerebroside.

[2] = test system: mouse neuroblastoma Neuro-2A cells; details: previously reported for a ganglioside effect; cited from earlier work
[3] = Cytotoxicity and growth inhibition in neuroblastoma cell lines; type: cell-based; details: various neuroblastoma cell lines; read-out: concentration at which cell growth was inhibited, morphology changed and cells eventually died
[4] = test system: neuroblastoma cell lines; assay: as above; type: cell-based; details: various neuroblastoma cell lines

CCCCCCCCCCCCCCC[C@@H](O)C(=O)N[C@@H](CO[C@@H]1O[C@H](CO)[C@@H](O)[C@H](O)[C@H]1O)[C@H](O)/C=C/CC/C=C(\C)CCCCCCCCC [Cerebroside]
TLC mobility after acid hydrolysis [1]: did not show altered TLC mobility

GT1b
concentration required for ganglioside effect on neurite formation [2]: 200 µg/mL

CCCCCCCCCCCCC/C=C/[C@@H](O)[C@@H](N)CO[C@@H]1O[C@H](CO)[C@H](O)[C@H](O)[C@H]1O [psychosine, galactosylsphingosine]
MCC [3]: 10 to 20 µg/mL | cytotoxic effect / growth inhibition (in words) [4]: strong cytotoxic effect; also recorded: cytotoxic effects and inhibited cell growth even at very low doses
